This passage reports Ki and Km results from ChEMBL document CHEMBL1130852, “In vitro evaluation and crystallographic analysis of a new class of selective, non-amide-based thrombin inhibitors” (Bioorg Med Chem Lett, 1998).

Usually Ki stands for the equilibrium dissociation constant of an inhibitor or competing ligand from its target. Broadly, the Km is the substrate concentration at which the rate is half of its maximum.

“And” between values parts separate entries of the source, which are not always exact repeats. Equal values may be shown once.

First the molecules themselves.
B1: Serine protease 1 (Bos taurus), P00760 (protein)
chain: MKTFIFLALLGAAVAFPVDDDDKIVGGYTCGANTVPYQVSLNSGYHFCGGSLINSQWVVSAAHCYKSGIQVRLGEDNINVVEGNEQFISASKSIVHPSYNSNTLNNDIMLIKLKSAASLNSRVASISLPTSCASAGTQCLISGWGNTKSSGTSYPDVLKCLKAPILSDSSCKSAYPGQITSNMFCAGYLEGGKDSCQGDSGGPVVCSGKLQGIVSWGSGCAQKNKPGVYTKVCNYVSWIKQTIASN
B2: Chymotrypsin-C (Homo sapiens), Q99895 (protein)
chain: MLGITVLAALLACASSCGVPSFPPNLSARVVGGEDARPHSWPWQISLQYLKNDTWRHTCGGTLIASNFVLTAAHCISNTRTYRVAVGKNNLEVEDEEGSLFVGVDTIHVHKRWNALLLRNDIALIKLAEHVELSDTIQVACLPEKDSLLPKDYPCYVTGWGRLWTNGPIADKLQQGLQPVVDHATCSRIDWWGFRVKKTMVCAGGDGVISACNGDSGGPLNCQLENGSWEVFGIVSFGSRRGCNTRKKPVVYTRVSAYIDWINEKMQL

Sequence of Plasminogen (P00747 97-580 limits assumed): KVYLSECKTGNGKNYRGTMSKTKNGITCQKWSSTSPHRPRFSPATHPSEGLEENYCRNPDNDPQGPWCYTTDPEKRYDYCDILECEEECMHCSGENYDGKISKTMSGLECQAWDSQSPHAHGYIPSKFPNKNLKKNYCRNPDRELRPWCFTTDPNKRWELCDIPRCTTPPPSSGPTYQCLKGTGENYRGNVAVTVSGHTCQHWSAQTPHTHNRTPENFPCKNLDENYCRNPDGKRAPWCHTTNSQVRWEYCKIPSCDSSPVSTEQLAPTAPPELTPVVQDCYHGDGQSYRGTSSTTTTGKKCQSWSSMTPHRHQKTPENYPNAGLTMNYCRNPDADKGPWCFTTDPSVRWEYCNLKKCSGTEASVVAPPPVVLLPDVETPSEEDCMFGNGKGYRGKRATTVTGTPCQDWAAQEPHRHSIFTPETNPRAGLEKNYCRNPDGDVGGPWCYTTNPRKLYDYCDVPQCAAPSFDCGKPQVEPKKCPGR
Sequence of Plasminogen (P00747 581-810 limits assumed): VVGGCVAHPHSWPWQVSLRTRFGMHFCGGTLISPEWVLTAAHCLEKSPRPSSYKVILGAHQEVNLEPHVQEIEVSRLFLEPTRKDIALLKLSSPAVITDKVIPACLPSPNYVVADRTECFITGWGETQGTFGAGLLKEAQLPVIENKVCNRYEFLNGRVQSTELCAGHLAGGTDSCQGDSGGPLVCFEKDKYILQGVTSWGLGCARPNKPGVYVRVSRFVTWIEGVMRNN

The first data set deals with Coagulation factor X (Homo sapiens, UniProt P00742). As to the kind of experiment: Compound was tested in vitro for its ability to inhibit serine protease factor Xa using benzoyl-Ile-Glu-Gly-Arg-p-nitroanilide as substrate.
Sequence of Coagulation factor X (P00742 41-179 limits assumed): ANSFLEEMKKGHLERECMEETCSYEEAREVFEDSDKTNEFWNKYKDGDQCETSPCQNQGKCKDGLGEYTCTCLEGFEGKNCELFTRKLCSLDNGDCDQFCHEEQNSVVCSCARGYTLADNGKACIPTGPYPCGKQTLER
Sequence of Coagulation factor X (P00742 235-488 limits assumed): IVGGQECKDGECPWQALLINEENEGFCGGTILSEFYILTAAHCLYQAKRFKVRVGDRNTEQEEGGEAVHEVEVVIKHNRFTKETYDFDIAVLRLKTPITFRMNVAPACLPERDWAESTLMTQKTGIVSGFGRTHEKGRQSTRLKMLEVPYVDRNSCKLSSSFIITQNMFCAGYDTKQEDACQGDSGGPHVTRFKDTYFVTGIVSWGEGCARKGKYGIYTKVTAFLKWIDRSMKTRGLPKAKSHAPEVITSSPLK
Conditions: not given
`Cc1cc(OCCN(C)c2ccncc2)cc(OS(=O)(=O)c2ccccc2Cl)c1` displayed a Ki of 160 µM.

`Cc1cc(OCCCCN=C(N)N)cc(OS(=O)(=O)c2ccccc2Cl)c1`: the inhibitory constant (Ki) was 110 µM.

In turn, `Cc1cc(OCCCCCN=C(N)N)cc(OS(=O)(=O)c2ccccc2Cl)c1` registered a Ki of 120 µM.

As for `Cc1cc(OCC2CCCN(C(=N)N)C2)cc(OS(=O)(=O)c2ccccc2Cl)c1` (stereo unspecified), affinity was put at a Ki of 29 µM.

Consider `Cc1cc(OCC2CCN(C(=N)N)CC2)cc(OS(=O)(=O)c2ccccc2Cl)c1`, for which the inhibition constant Ki stood at 80 µM.

With `Cc1cc(OCCCN=C(N)N)cc(OS(=O)(=O)c2ccccc2Cl)c1`, the Ki is greater than 200 µM.

A further data set deals with CC(C)[C@H](NC(=O)[C@H](Cc1ccccc1)NC(=O)OCc1ccccc1)C(=O)N[C@@H](CCCN=C(N)N)C(=O)Nc1ccc([N+](=O)[O-])cc1. As to the kind of experiment: (§1) Compound was tested in vitro for its ability to inhibit serine protease urokinase using carbobenzyloxy-Phe-Val-Arg-p-nitroanilide as substrate.
Conditions: not given
Regarding “Urokinase-type plasminogen activator (Homo sapiens) (from UniProt P00749)”, the Km is 190 µM and 170 µM.

The next data set addresses Urokinase-type plasminogen activator (Homo sapiens, UniProt P00749). The description is as §1.
Conditions: not given
In the case of `Cc1cc(OCCN(C)c2ccncc2)cc(OS(=O)(=O)c2ccccc2Cl)c1`, the Ki was greater than 200 µM.

`Cc1cc(OCCCCN=C(N)N)cc(OS(=O)(=O)c2ccccc2Cl)c1`: the inhibition constant Ki is greater than 200 µM.

In the case of `Cc1cc(OCCCCCN=C(N)N)cc(OS(=O)(=O)c2ccccc2Cl)c1`, the inhibition constant (Ki) is greater than 200 µM.

For the molecule `Cc1cc(OCC2CCCN(C(=N)N)C2)cc(OS(=O)(=O)c2ccccc2Cl)c1` (stereo unspecified), the Ki was greater than 200 µM.

`Cc1cc(OCC2CCN(C(=N)N)CC2)cc(OS(=O)(=O)c2ccccc2Cl)c1`: the inhibition constant Ki was greater than 200 µM.

On to `Cc1cc(OCCCN=C(N)N)cc(OS(=O)(=O)c2ccccc2Cl)c1`, for which the Ki was greater than 200 µM.

A further data set addresses Prothrombin (Homo sapiens, UniProt P00734). As to the kind of experiment: Compound was tested in vitro for its ability to inhibit serine protease thrombin using […] as substrate.
Conditions: not given
The molecule `Cc1cc(OCCCCCN=C(N)N)cc(OS(=O)(=O)c2ccccc2Cl)c1` came in with an inhibition constant (Ki) of 260 nM.

The molecule `Cc1cc(OCC2CCCN(C(=N)N)C2)cc(OS(=O)(=O)c2ccccc2Cl)c1` (stereo unspecified) yielded a Ki of 320 nM.

`Cc1cc(OCC2CCN(C(=N)N)CC2)cc(OS(=O)(=O)c2ccccc2Cl)c1` yielded a Ki of 4.6 nM.

Consider `Cc1cc(OCCCN=C(N)N)cc(OS(=O)(=O)c2ccccc2Cl)c1`, for which the affinity, expressed as Ki, was 33 nM.

Target in another data set: not listed separately
As to the kind of experiment: Compound was tested in vitro for its ability to inhibit serine protease elastase using suc-Ala-Ala-Pro-Val-p-nitroanilide as substrate.
Conditions: not given
`Cc1cc(OCCN(C)c2ccncc2)cc(OS(=O)(=O)c2ccccc2Cl)c1` registered a Ki greater than 200 µM.

`Cc1cc(OCCCCN=C(N)N)cc(OS(=O)(=O)c2ccccc2Cl)c1` gave a Ki greater than 200 µM.

For `Cc1cc(OCCCCCN=C(N)N)cc(OS(=O)(=O)c2ccccc2Cl)c1`, the inhibition constant (Ki) is greater than 200 µM.

For the molecule `Cc1cc(OCC2CCCN(C(=N)N)C2)cc(OS(=O)(=O)c2ccccc2Cl)c1` (stereo unspecified), the inhibitory constant (Ki) is greater than 200 µM.

`Cc1cc(OCC2CCN(C(=N)N)CC2)cc(OS(=O)(=O)c2ccccc2Cl)c1`: the Ki was greater than 200 µM.

In the case of `Cc1cc(OCCCN=C(N)N)cc(OS(=O)(=O)c2ccccc2Cl)c1`, the inhibition constant Ki was greater than 200 µM.

Compound in another data set: CC(C)[C@H](NC(=O)[C@H](Cc1ccccc1)NC(=O)c1ccccc1)C(=O)N[C@@H](CCCN=C(N)N)C(=O)Nc1ccc([N+](=O)[O-])cc1
The data set can be described thus: Compound was tested in vitro for its ability to inhibit serine protease trypsin using benzoyl-Phe-Val-Arg-p-nitroanilide as substrate. The note with it: Bos taurus.
Regarding B1, the Km was 160 µM and 100 µM.

Compound in another data set: C[C@H](NC(=O)CCC(=O)O)C(=O)N[C@@H](C)C(=O)N1CCC[C@H]1C(=O)N[C@@H](Cc1ccccc1)C(=O)Nc1ccc([N+](=O)[O-])cc1
The data set can be described thus: Compound was tested in vitro for its ability to inhibit serine protease Chymotrypsinogen using suc-Ala-Ala-Pro-Phe-p-nitroanilide as substrate.
Conditions: not given
Take B2: the Km was 60 µM and 100 µM.

A further data set has as its target Plasminogen (Homo sapiens, UniProt P00747). As to the kind of experiment: Compound was tested in vitro for its ability to inhibit serine protease plasmin using tosyl-Gly-Pro-Lys-p-nitroanilide as substrate.
Conditions: not given
The molecule `Cc1cc(OCCN(C)c2ccncc2)cc(OS(=O)(=O)c2ccccc2Cl)c1` had an inhibition constant (Ki) greater than 200 µM.

Consider `Cc1cc(OCCCCN=C(N)N)cc(OS(=O)(=O)c2ccccc2Cl)c1`, for which the Ki is greater than 200 µM.

`Cc1cc(OCCCCCN=C(N)N)cc(OS(=O)(=O)c2ccccc2Cl)c1` showed an inhibitory constant (Ki) greater than 200 µM.

In the case of `Cc1cc(OCC2CCCN(C(=N)N)C2)cc(OS(=O)(=O)c2ccccc2Cl)c1` (stereo unspecified), the Ki is greater than 200 µM.

For the molecule `Cc1cc(OCC2CCN(C(=N)N)CC2)cc(OS(=O)(=O)c2ccccc2Cl)c1`, the Ki was greater than 200 µM.

The molecule `Cc1cc(OCCCN=C(N)N)cc(OS(=O)(=O)c2ccccc2Cl)c1` returned a Ki greater than 200 µM.
